Reference: patent US7897611B2, “Pharmaceutical compositions and methods for relieving pain and treating central nervous system disorders” (Targacept, Inc., priority 2003, dated 2011)

Tests used:
mice = test: Hot plate test in mice (nociceptive reaction latency); assay type: in vivo; settings: for Reaction Latency: hot plate 52°C, cutoff 30 seconds, mean ± SEM; for % variation of reaction latency: vs saline; for increase of nociceptive reaction latency vs vehicle controls: 1.0 mg/kg oral; for increase of nociceptive reaction latency vs vehicle-control: 60 mg/kg oral
Experimental: The compounds of Example 1 (administered as the dihydrochloride salt of a 3:1 mixture of 3-(3-pyridinyl)-6-azabicyclo[3.2.1]oct-2-ene and 3-(3-pyridinyl)-6-azabicyclo[3.2.1]oct-3-ene) were evaluated in this Example using a “hot plate” test in mice. Briefly, the compounds of Example 1 (0.03, 0.1 and 0.3 mg free base/kg) were subcutaneously administered five minutes before the hot plate test. Morphine (10 mg/kg) was subcutaneously administered at 15 minutes before the test. Each mouse was placed on a metallic hot plate maintained at 52±0.2° C. The nociceptive reaction latency, characterized by licking reflex of the forepaws or by jumping off the hot plate, was recorded. The cutoff was set to 30 seconds.
The time course of the analgesic effect of the compounds of Example 1 (0.1, 0.3 and 1.0 mg free base/kg) was also assessed using the hot plate test following oral administration. Each dose of the compounds was administered to separate groups of animals at either 5, 15, 30 or 60 minutes prior to hot plate assessment. Morphine (60 mg/kg) and vehicle were also orally administered to separate groups of animals either 5, 15, 30, or 60 minutes before the test. Each mouse was placed on a metallic hot plate maintained at 52±0.2° C. The nociceptive reaction latency, characterized by licking reflex of the forepaws or by jumping off the hot plate, was recorded. The cutoff was set to 30 seconds.

rats = test: Rat model of peripheral mononeuropathy (Bennett Model), paw pressure test; assay type: in vivo; settings: for % Variation of nociceptive threshold, injured paw, vs vehicle-treated group / Nociceptive threshold, injured paw: Bennett model; for Nociceptive threshold, injured paw: paw pressure, mean ± SEM
Experimental: A rat model of peripheral mononeuropathy (Bennett Model) was also used to evaluate the antihyperalgesic properties of the compounds.
Briefly, peripheral mononeuropathy was induced by loose ligation of the sciatic nerve in anaesthetized rats (pentobarbital; 45 mg/kg by intraperitoneal route). Fourteen days later, the nociceptive threshold was evaluated using a mechanical nociceptive stimulation (paw pressure test). An increasing pressure was applied onto the hindpaw of the animal until the nociceptive reaction (vocalization or paw withdrawal) was reached. The pain threshold (grams of contact pressure) was measured in hindpaws, both ipsilateral (injured side) and contralateral (non-injured side) to the site of sciatic ligation injury, at 10 minutes after the oral treatment for the compounds (1 mg/kg) and 60 minutes after dosing for morphine (60 mg/kg) and vehicle.
The results were expressed as a) the nociceptive threshold (mean±SEM) in grams of contact pressure for the injured paw and for the non-injured paw in the vehicle-treated group, and b) the percentage of variation of the nociceptive threshold calculated from the mean value of the vehicle-treated group.

[1] = hot plate, 15 minutes after dosing
[2] = 1 mg/kg oral, 10 minutes after treatment
[3] = 60 mg/kg oral, 60 minutes after dosing

C1=C(c2cccnc2)CC2CNCC1C2.Cl.Cl (stereo not drawn)
melting point: 219 to 221 °C

C1=C(c2cccnc2)C2CNCC1C2.Cl.Cl (stereo not drawn)
melting point: 192 to 195 °C

3-(3-pyridinyl)-6-azabicyclo[3.2.1]oct-2-ene dihydrochloride and 3-(3-pyridinyl)-6-azabicyclo[3.2.1]oct-3-ene dihydrochloride [Example 1]
Reaction Latency (mice; 0.03 mg free base/kg subcutaneous, five minutes before the test): 19.3 ± 2.8 s | Reaction Latency (mice; 0.1 mg free base/kg subcutaneous, five minutes before the test): 18.8 ± 2.2 s | Reaction Latency (mice; 0.3 mg free base/kg subcutaneous, five minutes before the test): 28.2 ± 1.8 s | % variation of reaction latency (mice; hot plate, 0.03 mg/kg subcutaneous, five minutes before the test): 72% | % variation of reaction latency (mice; hot plate, 0.1 mg/kg subcutaneous, five minutes before the test): 68% | % variation of reaction latency (mice; hot plate, 0.3 mg/kg subcutaneous, five minutes before the test): 152% | increase of nociceptive reaction latency vs vehicle controls (mice; hot plate, 5 minutes after dosing): 82% | increase of nociceptive reaction latency vs vehicle controls (mice; [1]): 97% | effect on nociceptive threshold vs vehicle-treated group (mice; hot plate, lower oral doses (0.1 and 0.3 mg free base/kg), data not shown): failed to modify the nociceptive threshold | behavioral side-effects following dosing (rats; 1 mg/kg oral): No behavioral side-effects were observed | % Variation of nociceptive threshold, injured paw, vs vehicle-treated group (rats; [2]): 20% | Nociceptive threshold, injured paw (rats; [2]): 132.0 ± 9.0 g

CN1CC[C@]23c4c5ccc(O)c4O[C@H]2[C@@H](O)C=C[C@H]3[C@H]1C5 [Morphine, reference compound]
Reaction Latency (mice; 10 mg/kg subcutaneous, 15 minutes before the test): 29.4 ± 0.5 s | % variation of reaction latency (mice; hot plate, 10 mg/kg subcutaneous, 15 minutes before the test): 163% | increase of nociceptive reaction latency vs vehicle-control (mice; [1]): 69% | increase of nociceptive reaction latency vs vehicle-control (mice; hot plate, 30 minutes after dosing): 47% | increase of nociceptive reaction latency vs vehicle-control (mice; hot plate, 60 minutes after dosing): 37% | % Variation of nociceptive threshold, injured paw, vs vehicle-treated group (rats; [3]): 144% | Nociceptive threshold, injured paw (rats; [3]): 268.0 ± 18.9 g
